Assay results reported in ChEMBL document CHEMBL1201862, “PubChem BioAssay data set” (2004).
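In this assay, cells in 96-well plates receive the compound at five concentrations for 48 hours. Endpoints are linearly interpolated between the surrounding concentrations. Abbreviation: GI50, concentration required for 50% inhibition of growth.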 Calls of active or inactive are those of the source. No stated cut-off is given here; in the data, active = GI50 up to about 1.1 µM and inactive = higher.

Columns and labels:
Assay in all cases: NCI tumour cell line growth inhibition, 48 h
NCI-H226 = tested on: NCI-H226
SK-OV-3 = tested on: SK-OV-3
TK-10 = tested on: TK-10
HOP-62 = tested on: HOP-62
NCI/ADR-RES = tested on: NCI/ADR-RES
SK-MEL-5 = tested on: SK-MEL-5
UACC-257 = tested on: UACC-257
IGROV-1 = tested on: IGROV-1
CCRF-CEM = tested on: CCRF-CEM
HCT-15 = tested on: HCT-15
HOP-92 = tested on: HOP-92
MDA-MB-435 = tested on: MDA-MB-435
OVCAR-8 = tested on: OVCAR-8
EKVX = tested on: EKVX
Malme-3M = tested on: Malme-3M
K562 = tested on: K562
RPMI-8226 = tested on: RPMI-8226
DU-145 = tested on: DU-145
SF-295 = tested on: SF-295
SNB-19 = tested on: SNB-19
PC-3 = tested on: PC-3
HT-29 = tested on: HT-29
NCI-H460 = tested on: NCI-H460
Hs-578T = tested on: Hs-578T
BT-549 = tested on: BT-549
SF-268 = tested on: SF-268
HCT-116 = tested on: HCT-116
A498 = tested on: A498
MDA-MB-231 = tested on: MDA-MB-231
UO-31 = tested on: UO-31
OVCAR-5 = tested on: OVCAR-5
T47D = tested on: T47D
RXF 393 = tested on: RXF 393
UACC-62 = tested on: UACC-62
SW-620 = tested on: SW-620
SNB-75 = tested on: SNB-75
COLO 205 = tested on: COLO 205
NCI-H522 = tested on: NCI-H522
LOX IMVI = tested on: LOX IMVI
MCF7 = tested on: MCF7
NCI-H23 = tested on: NCI-H23
MDA-N = tested on: MDA-N
OVCAR-4 = tested on: OVCAR-4
KM12 = tested on: KM12
SF-539 = tested on: SF-539
SK-MEL-2 = tested on: SK-MEL-2
MOLT-4 = tested on: MOLT-4
786-0 = tested on: 786-0
CAKI-1 = tested on: CAKI-1
ACHN = tested on: ACHN
SN12C = tested on: SN12C
OVCAR-3 = tested on: OVCAR-3
M14 = tested on: M14
HCC 2998 = tested on: HCC 2998
SK-MEL-28 = tested on: SK-MEL-28
HL-60 = tested on: HL-60
U-251 = tested on: U-251
A549 = tested on: A549

Oc1ccc(SCc2cc(O)ccc2O)cc1
GI50 (NCI-H226): 9.42 µM (inactive)
GI50 (SK-OV-3): 30.2 µM (inactive)
GI50 (TK-10): 18.4 µM (inactive)
GI50 (HOP-62): 14.8 µM (inactive)
GI50 (NCI/ADR-RES): 14.4 µM (inactive)
GI50 (SK-MEL-5): 10 µM (inactive)
GI50 (UACC-257): 13.9 µM (inactive)
GI50 (IGROV-1): 10.1 µM (inactive)
GI50 (CCRF-CEM): 1.79 µM (inactive)
GI50 (HCT-15): 9.55 µM
GI50 (HOP-92): 22.3 µM (inactive)
GI50 (MDA-MB-435): 13.1 µM (inactive)
GI50 (OVCAR-8): 16.5 µM (inactive)
GI50 (EKVX): 18.9 µM (inactive)
GI50 (Malme-3M): 19.5 µM (inactive)
GI50 (K562): 3.96 µM (inactive)
GI50 (RPMI-8226): 2.67 µM (inactive)
GI50 (DU-145): 24.7 µM (inactive)
GI50 (SF-295): 15.6 µM (inactive)
GI50 (SNB-19): 23.7 µM (inactive)
GI50 (PC-3): 6.1 µM (inactive)
GI50 (HT-29): 36 µM (inactive)
GI50 (NCI-H460): 28.9 µM (inactive)
GI50 (Hs-578T): 27.9 µM (inactive)
GI50 (BT-549): 3.81 µM (inactive)
GI50 (SF-268): 9.04 µM (inactive)
GI50 (HCT-116): 11.2 µM (inactive)
GI50 (A498): 34 µM (inactive)
GI50 (MDA-MB-231): 16.5 µM (inactive)
GI50 (UO-31): 6.05 µM (inactive)
GI50 (OVCAR-5): 20.4 µM (inactive)
GI50 (T47D): 8.39 µM (inactive)
GI50 (RXF 393): 11.9 µM (inactive)
GI50 (UACC-62): 17.1 µM (inactive)
GI50 (SW-620): 19.1 µM (inactive)
GI50 (SNB-75): 20.9 µM (inactive)
GI50 (COLO 205): 19.2 µM (inactive)
GI50 (NCI-H522): 1.79 µM (inactive)
GI50 (LOX IMVI): 16.6 µM (inactive)
GI50 (MCF7): 12.6 µM (inactive)
GI50 (NCI-H23): 28.5 µM (inactive)
GI50 (MDA-N): 14.4 µM (inactive)
GI50 (OVCAR-4): 5.5 µM (inactive)
GI50 (KM12): 17.5 µM (inactive)
GI50 (SF-539): 3.54 µM (inactive)
GI50 (SK-MEL-2): 14.9 µM (inactive)
GI50 (MOLT-4): 3.86 µM (inactive)
GI50 (786-0): 12.8 µM (inactive)
GI50 (CAKI-1): 6.14 µM (inactive)
GI50 (ACHN): 13.7 µM (inactive)
GI50 (SN12C): 10.2 µM (inactive)
GI50 (OVCAR-3): 7.69 µM (inactive)
GI50 (M14): 18.4 µM (inactive)
GI50 (HCC 2998): 22.8 µM (inactive)
GI50 (SK-MEL-28): 17.7 µM (inactive)
GI50 (HL-60): 2.85 µM (inactive)
GI50 (U-251): 14.5 µM (inactive)
GI50 (A549): 41.3 µM (inactive)
